Paper PMC11562385 (RSC Chemical Biology, 2024)
Peptide text beside a SMILES is read from it.

Experiments:
PD1:PDL1 interaction = biological target: T1, PD1:PDL1 interaction (Homo sapiens, UniProt Q15116); experiment: PD1/PDL1 immunoblocking ELISA (BPS Bioscience kit cat # 72005); format: binding; details: for LE (ligand efficiency): LE = -RTln(EC50)/HA, HA = non-hydrogen atoms omitting the strap (RWV•••VWE)
T1 construct: purchased BPS Bioscience 72005

[1] = Variable-temperature CD melting curves (CD-melts at 228±2 nm and 202±2 nm), individual and global two-state fits; format: physicochemical; details: for ΔGF0: CD-melt at 228±2 nm, individual two-state Gibbs-Helmholtz fit (Origin 9.0), phosphate buffer 15 mM pH 6.5 ± MeOH; for ΔGF0 / DHm (fitted value, results from OriginPro) / Tm (fitted value, results from OriginPro): 0-95 °C; for Tm / Hairpin %-fold 291K / Hairpin %-fold 310K: Table S5, individual fit; for Tm: 228±2 nm; for -TΔSF0 / ΔCpF0 / ΔHF0 / ΔHm: as E16; for VT-CD %-fold: folded fraction (χF) at 25 °C from CD-melts, (R) regular / (B) bulged fold; for VT-CD %-fold / VT-CD Tm (°C): phosphate buffer 15 mM pH 6.5, up to 20% MeOH; for Tm 228 nm Indiv.: exciton band 228 nm; for VT-CD Tm (°C): melting temperature from CD-melts; for DHm (fitted value, results from OriginPro) / Tm (fitted value, results from OriginPro): two-state fit of the CD melt θ - θcoil(95) vs T, peptide c 3.2e-5 to 5e-5 M; for %fold 291K: fraction folded at 291 K from the two-state fit of the CD melt
Method in brief: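 Far-UV CD melts (0 to 95 °C) at 15-120 µM peptide in 15 mM phosphate buffer, concentration set by Trp/Tyr absorbance at 280 nm; CD-exciton intensity taken as %-folding probe. Melting curves fitted individually and globally to a two-state model.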

[2] = biological target: T2, cell surface PD1 on CD3+/CD8+ cells of h-PBMCs (Homo sapiens, UniProt Q15116); experiment: In cellulo PD1 blockade on h-PBMCs by flow cytometry; format: cell-based; details: h-PBMC cultures, 30 h, n = 3
T2 construct: endogenous in cells; host or cells: healthy human PBMCs (CD45+, CD3+/CD8+ gated)
Text: (§1) Then, an ex vivo immune cell culture system using h-PBMCs and exhausted PBMCs from a melanoma patient (e-PBMCs) was used to determine the efficacy of selected ADAPTin peptides on T-effector cells (Fig. 6).[91,92] T-cell exhaustion typically leads to a reduction in cytokine release, cytotoxic activity, as well as slower T-cell proliferation.

e-PBMCs = experiment: Ex vivo cytokine secretion assay, exhausted PBMCs from a melanoma patient; format: cell-based, human; details: e-PBMC, 6 h, LEGENDplex
Description: as §1, with “proliferation. […] Cytokines concentrations measured at 72 h post-treatment were in most cases over the detection limit range further indicating the effectiveness of our compounds over time.” for “proliferation.”
Non-covalent ADAPTin2c/2p were used as negative control. (A) Levels of inflammatory cytokines measured by flow-cytometry (FACS) after 6 h incubation with electrophilic ADAPTins. Error bars indicate the mean ± SD, (n = 3). (B) Rescue of exhausted PBMCs from a melanoma patient. Levels of inflammatory cytokines and granule-associated proteins released (6 h) measured by FACS (healthy and untreated exhausted PBMCs: h-/e-PBMCs used as positive and negative controls respectively). Error bars indicate the avg ± SD, (n = 2).
Ex Vivo Cytokine Secretion Assay.
Normal PBMCs (from healthy donor) and exhausted PBMCs isolated from the blood sample of a melanoma patient were activated for 48 h before using anti-CD2/28 monoclonal antibodies with IL-2 (2 ng/mL) as mentioned above. After 48 h, PBMCs were washed and incubated with a series of ADAPTins for 6 h. After treatment, media supernatant was collected for cytokine release measurements using the LEGENDplex™ human CD8/NK (13-plex) panel (BioLegend, cat no. 740267). Briefly, samples were mixed with assay buffer and human (13-plex) mixed-beads and plated on the 96-well filter plate. Samples were incubated for 2 h at room temperature, washed, and resuspended beads with detection antibodies according to manufacturer's protocol. Samples were transferred to a 96-well plate to read on a flow cytometer. The flow cytometer and data acquisition software setting were used according to the manufacturer's instructions. Flow analysis was obtained using a CytoFLEX-S flow cytometer equipped with 3 lasers (488 nm blue, 405 nm violet, and 638 nm from Beckman).
Table S9. Raw data of cytokine secretion assay (n=2).
Cytokine assay IL-2 TNF-α IFN-γ Perforin […]

T1 sequence (Q15116 25-167 limits assumed): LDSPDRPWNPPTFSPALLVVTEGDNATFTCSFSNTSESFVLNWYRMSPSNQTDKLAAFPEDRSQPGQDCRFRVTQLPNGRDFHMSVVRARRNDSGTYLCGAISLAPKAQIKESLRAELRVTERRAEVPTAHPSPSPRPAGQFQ
T2 sequence (Q15116 25-288): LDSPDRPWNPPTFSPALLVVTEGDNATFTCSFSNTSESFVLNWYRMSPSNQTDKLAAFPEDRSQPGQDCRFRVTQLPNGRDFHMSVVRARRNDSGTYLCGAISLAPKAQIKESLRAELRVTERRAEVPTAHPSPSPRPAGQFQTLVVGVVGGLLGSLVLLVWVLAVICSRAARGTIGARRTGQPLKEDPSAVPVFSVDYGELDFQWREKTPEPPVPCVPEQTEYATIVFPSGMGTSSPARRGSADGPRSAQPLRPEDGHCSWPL

Compound	LE (ligand efficiency) (PD1:PDL1 interaction)	ΔGF0 [1]	Tm [1]	Hairpin %-fold 291K ([1]; 291 K)	Hairpin %-fold 310K [1]	-TΔSF0 [1]	ΔCpF0 [1]	ΔHF0 [1]	ΔHm [1]	VT-CD %-fold [1]	χF (291 K) 228 nm Glob. ([1]; global fit, 228 nm, 291 K)	χF (291 K) 228 nm Indiv. ([1]; individual fit, 228 nm, 291 K)	Tm 228 nm Indiv. ([1]; individual fit)	VT-CD Tm (°C) [1]	DHm (fitted value, results from OriginPro) ([1]; l 0.1 cm)	Tm (fitted value, results from OriginPro) ([1]; l 0.1 cm)	also measured
CSCC[C@H](NC(=O)CNC(=O)[C@H](CCC(=O)O)NC(=O)[C@H](CCCNC(=N)N)NC(=O)[C@H](C)NC(=O)[C@@H](NC(=O)[C@H](Cc1c[nH]c2ccccc12)NC(=O)[C@@H](N)CCCNC(=N)N)C(C)C)C(=O)N[C@@H](CC(N)=O)C(=O)N[C@H](C(=O)N[C@@H](CC(=O)O)C(=O)N[C@@H](Cc1c[nH]c2ccccc12)C(=O)N[C@@H](Cc1ccc(O)cc1)C(=O)N[C@@H](Cc1ccccc1)C(=O)N[C@@H](CC(=O)O)C(=O)N[C@@H](Cc1ccc(O)cc1)C(=O)N[C@@H](Cc1c[nH]c2ccccc12)C(=O)N[C@@H](Cc1c[nH]cn1)C(=O)N[C@@H](Cc1c[nH]c2ccccc12)C(=O)N[C@@H](CCC(=O)O)C(=O)O)[C@@H](C)O [2n] (H-RWVAREGMNTDWYFDYWHWE-OH)	0.07	0.46 ± 0.01 kcal/mol	-5.1 oC	36 ± 2%	23 ± 2%	6.11 ± 0.19 kcal/mol	-97 ± 14 cal.deg-1.mol-1	-5.65 ± 0.18 kcal/mol	-2.75 ± 0.80 kcal/mol	36% (B)	0%	36%	-5.1 oC	<0 °C	-2.75455 kcal/mol	268.058 K	–
CSCC[C@H](NC(=O)CNC(=O)[C@H](CCC(=O)O)NC(=O)[C@H](CCCNC(=N)N)NC(=O)[C@H](C)NC(=O)[C@@H](NC(=O)[C@H](Cc1c[nH]c2ccccc12)NC(=O)[C@@H](N)CCCNC(=N)N)C(C)C)C(=O)N[C@@H](CC(N)=O)C(=O)N[C@H](C(=O)N[C@@H](CC(=O)O)C(=O)NCC(=O)N[C@@H](Cc1ccc(O)cc1)C(=O)N[C@@H](Cc1ccccc1)C(=O)N[C@@H](CC(=O)O)C(=O)N[C@@H](Cc1ccc(O)cc1)C(=O)N[C@@H](Cc1c[nH]c2ccccc12)C(=O)N[C@@H](Cc1c[nH]cn1)C(=O)N[C@@H](Cc1c[nH]c2ccccc12)C(=O)N[C@@H](CCC(=O)O)C(=O)O)[C@@H](C)O [2o] (H-RWVAREGMNTDGYFDYWHWE-OH)	0.07	0.47 ± 0.01 kcal/mol	2.8 oC	36 ± 1%	23 ± 1%	6.45 ± 0.02 kcal/mol	-2 ± 1 cal.deg-1.mol-1	-5.97 ± 0.01 kcal/mol	-5.93 ± 0.03 kcal/mol	50% (B)	47%	36%	2.8 oC	3 °C	-5.92662 kcal/mol	275.984 K	%fold 291K ([1]; l 0.1 cm): 36%; Tm 228 nm Glob. ([1]; global fit (shared maximum molar ellipticity), 228 nm): 14.6 oC; Tm 202 nm Glob. ([1]; global fit, 202 nm): -18.3 oC; χF (291 K) 202 nm Glob. ([1]; global fit, 202 nm, 291 K): 19%; χF (291 K) 202 nm Indiv. ([1]; individual fit, 202 nm, 291 K): 38%; Tm 202 nm Indiv. ([1]; individual fit, β-bulge band 202 nm): 7.9 oC
CSCC[C@H](NC(=O)CNC(=O)[C@H](CCC(=O)O)NC(=O)[C@H](CCCNC(=N)N)NC(=O)[C@H](C)NC(=O)[C@@H](NC(=O)[C@H](Cc1c[nH]c2ccccc12)NC(=O)[C@@H](N)CCCNC(=N)N)C(C)C)C(=O)N[C@@H](CC(N)=O)C(=O)N[C@H](C(=O)N[C@@H](CC(=O)O)C(=O)NCC(=O)N[C@@H](Cc1ccc(O)cc1)C(=O)N[C@@H](Cc1ccccc1)C(=O)N[C@@H](CC(N)=O)C(=O)N[C@@H](Cc1ccc(O)cc1)C(=O)N[C@@H](Cc1c[nH]c2ccccc12)C(=O)N[C@H](C(=O)N[C@@H](Cc1c[nH]c2ccccc12)C(=O)N[C@@H](CCC(=O)O)C(=O)O)C(C)C)[C@@H](C)O [2p] (H-RWVAREGMNTDGYFNYWVWE-OH)	–	–	–	–	–	–	–	–	–	–	–	–	–	–	–	–	EC50 (PD1:PDL1 interaction): 160 nM; PD1 blockade on CD3+/CD8+ T-effector cells [2]: < 20%
CC[C@H](C)[C@H](NC(=O)[C@H](Cc1ccc(O)cc1)NC(=O)[C@H](Cc1c[nH]c2ccccc12)NC(=O)[C@H](Cc1ccc(O)cc1)NC(=O)[C@H](CC(N)=O)NC(=O)CNC(=O)[C@H](Cc1ccc(O)cc1)NC(=O)[C@H](C)NC(=O)[C@H](CCCNC(=N)N)NC(=O)[C@H](C)NC(=O)[C@@H](NC(=O)[C@H](Cc1c[nH]c2ccccc12)NC(=O)[C@@H](N)CCCNC(=N)N)C(C)C)C(=O)N[C@@H](CC(=O)O)C(=O)N[C@H](C(=O)N[C@@H](Cc1c[nH]c2ccccc12)C(=O)N[C@@H](Cc1c[nH]cn1)C(=O)N[C@@H](Cc1c[nH]c2ccccc12)C(=O)N[C@@H](CCC(=O)O)C(=O)O)C(C)C [2q] (H-RWVARAYGNYWYIDVWHWE-OH)	0.07	–	–	–	–	–	–	–	–	β-structure	–	–	–	–	–	–	fold by CD signature (in words) ([1]; no hairpin exciton, no fit possible): β-sheet structure
CC[C@H](C)[C@H](NC(=O)[C@H](Cc1ccc(O)cc1)NC(=O)CNC(=O)[C@H](Cc1ccc(O)cc1)NC(=O)[C@H](CC(N)=O)NC(=O)CNC(=O)[C@H](Cc1ccc(O)cc1)NC(=O)[C@H](C)NC(=O)[C@H](CCCNC(=N)N)NC(=O)[C@H](C)NC(=O)[C@@H](NC(=O)[C@H](Cc1c[nH]c2ccccc12)NC(=O)[C@@H](N)CCCNC(=N)N)C(C)C)C(=O)N[C@@H](CC(=O)O)C(=O)N[C@H](C(=O)N[C@@H](Cc1c[nH]c2ccccc12)C(=O)N[C@@H](Cc1c[nH]cn1)C(=O)N[C@@H](Cc1c[nH]c2ccccc12)C(=O)N[C@@H](CCC(=O)O)C(=O)O)C(C)C [2r] (H-RWVARAYGNYGYIDVWHWE-OH)	0.08	-1.15 ± 0.01 kcal/mol	67.6 oC	91 ± 1%	80 ± 1%	7.13 ± 0.3 kcal/mol	-44 ± 9 cal.deg-1.mol-1	-8.29 ± 0.3 kcal/mol	-10.2 ± 0.2 kcal/mol	91% (B)	–	–	–	–	–	–	%fold 291K ([1]; c 6.2e-5 M, l 0.1 cm): 91%; DHm (fitted value, OriginPro) ([1]; two-state fit of the CD melt (θ - θcoil(95) vs T, 0-95 °C), l 0.1 cm, enthalpy of folding at Tm): -10.1866 kcal/mol
pembrolizumab: FDA-approved anti-PD1 antibody; 'Pem' = its CDR-H3 loop in Table 1 [reference compound]	–	–	–	–	–	–	–	–	–	–	–	–	–	–	–	–	IFN-γ (e-PBMCs; replicate 1): 4359.77 pg/mL; IL-2 (e-PBMCs; replicate 1): 0.44 pg/mL; Perforin (e-PBMCs; replicate 1): 227.36 pg/mL; TNF-α (e-PBMCs; replicate 1): 500.12 pg/mL; IFN-γ (e-PBMCs; replicate 2): 7617.66 pg/mL; IL-2 (e-PBMCs; replicate 2): 275.42 pg/mL; Perforin (e-PBMCs; replicate 2): 438.61 pg/mL; TNF-α (e-PBMCs; replicate 2): 1224.22 pg/mL
